# Laboratory results from PMC4067742, “Direct Observations of Amyloid β Self-Assembly in Live Cells Provide Insights into Differences in the Kinetics of Aβ(1–40) and Aβ(1–42) Aggregation” (Chemistry & Biology, 2014).
# Several values for one entry are separate records, joined by “and”; a condition that tells them apart may be missing. Identical values can stand only once.
# What was measured:
# [1] = test system: SH-SY5Y human neuroblastoma cells; test: Confocal microscopy of uptake and intracellular localization; type: cell-based; conditions: for intracellular HF488 fluorescence (uptake) after 30 min: 500 nM monomeric peptide in medium, colocalized with endocytosis marker FM 4–64; for intracellular HF488 fluorescence (uptake) after 30 min / intracellular localization after 24 hr: confocal fluorescence; for intracellular localization after 24 hr: 500 nM peptide 24 hr, then 1 hr with 100 nM LysoTracker red; for uptake at 4°C: 1 hr at 4°C (inhibits endocytosis) compared with 37°C, cells washed before confocal imaging
# Description: Aβ peptides have been reported to be internalized into a variety of cell types, including neurons ([Burdick et al., 1997; Friedrich et al., 2010; Hu et al., 2009; Kaminski Schierle et al., 2011b; McGuire et al., 2012]). To characterize the uptake and intracellular localization of the peptides under the conditions used in our study, we added aliquots of monomeric ^HF488Aβ(1–40) or ^HF488Aβ(1–42) to cultures of SH-SY5Y human neuroblastoma cells to give a total peptide concentration of 500 nM in the cellular medium. […] The neuronal cells were also incubated for 1 hr at 37°C and at 4°C to compare uptake under conditions that, respectively, permit or inhibit endocytosis.
# Human neuroblastoma cells (SH-SY5Y) were grown in 1:1 minimal essential medium (MEM) and nutrient mixture F-12 Ham (Sigma-Aldrich) with sodium bicarbonate, including 15% heat-inactivated fetal bovine serum, 1% MEM non-essential amino acids, 2 mM […], 1% penicillin-streptomycin (10,000 U/ml K1), and 0.1% fungizone (amphotericin B, […] K1) (Life Technologies). Cells were plated 1 day prior to experiments in glass-bottomed culture dishes (MatTek) at a density of 50,000 cells/14-mm dish. All samples were washed once in CO2-independent, serum- and phenol red-free medium (prepared as above but with exclusion of serum and addition of 30 mM HEPES and B12 supplement [Gibco]). All experiments with cells were performed in at least duplicates and repeated at least three times. The Aβ concentration was 500 nM in all experiments.
# All uptake and colocalization experiments were carried out with the HF488-labeled Aβ peptides using a Leica SP5 confocal microscope (Leica Microsystems). For colocalization with FM 4–64 (Life Technologies), 5 μg/ml of the dye was added together with the peptide, and images were recorded after 1 hr of incubation. Both dyes were excited by the 488-nm laser line. HF488 emission was collected from 520–580 nm and FM 4–64 emission between 700–800 nm. For colocalization with LysoTracker red (Life Technologies), cells were incubated with HF488-labeled peptide for 24 hr, washed once with serum-free medium, and thereafter incubated for 1 hr with 100 nM LysoTracker red before images were recorded. LysoTracker red was excited using the […] laser line, and emission was collected between 700–800 nm. Sequential acquisition was used in all experiment to avoid bleed-through and cross-excitation. Cellular uptake at 4°C was assessed by keeping the cells in a cold room during incubation. The cells were washed prior to imaging to avoid uptake while observing the cells on the microscope.
# SH-SY5Y cells = test: Live cell FLIM of intracellular aggregation; type: cell-based, human; conditions: 500 nM peptide in culture medium; for lag phase of intracellular aggregation: 0–48 hr, live cell FLIM (Figure 4D)
# Excerpt: Having established that the fluorescence lifetime of HF488 acts as a reporter of amyloid formation of Aβ(1–40) and Aβ(1–42), we set out to investigate how the aggregation state of each of the two peptide isoforms is affected by its cellular uptake and accumulation in acidic organelles in SH-SY5Y cells. Using FLIM, we observed that there are no significant differences (p = 0.95, Table S1) in the fluorescence lifetimes of extracellular and internalized ^HF488Aβ(1–40) during the first 6 hr after application of 500 nM peptide to the culture medium (Figures 4A and 4D), indicating the presence of similar ^HF488Aβ(1–40) species within the cells as those applied to the extracellular environment. […] We then examined the cells treated with the same concentration of ^HF488Aβ(1–40) for 24 and 48 hr (Figures 4C and 4D), washing them prior to imaging to remove any extracellular fluorescence. […] The difference compared with the extracellular starting value, however, is statistically significant first after 48 hr (p = 0.0032, Table S1). […]
# All FLIM experiments were carried out using HF488-labeled Aβ peptides, and images were recorded by time-correlated single photon counting (TCSPC) using a confocal microscopy platform built on an Olympus Fluoview FV300 confocal scan unit. […] The excitation beam was reflected onto the sample with a 20/80 broad bandwidth coated beam splitter so that 20% of the excitation light passed on to the sample and 80% of the fluorescence signal was reflected toward the confocal pinhole. The fluorescence light was passed through a 515-nm Semrock long-pass filter (Laser 2000) and passed onto a fast photomultiplier tube (PMC-100, Becker & Hickl). Lifetimes were recorded using TCSPC circuitry (SPC-830, Becker & Hickl). […] The instrument response was measured using reflected light from either a coverslip or a coated mirror. […]
Substance,intracellular HF488 fluorescence (uptake) after 30 min [1],intracellular localization after 24 hr [1],"cellular uptake after 10 minutes ([1]; 500 nM peptide, 10 minutes, confocal fluorescence with Z-scanning (Figure S3))",uptake at 4°C ([1]; 500 nM peptide),lag phase of intracellular aggregation (SH-SY5Y cells),"endpoint value of intracellular fluorescence lifetime (SH-SY5Y cells; endpoint (48h, p = 0.22 Table S2), cells washed once, live cell FLIM)"
"^HF488Aβ(1–40): Synthetic 40-residue amyloid β peptide labeled at the N terminus with Hilyte Fluor 488, purchased from Anaspec",observed readily,colocalize with LysoTracker red,vesicular uptake,did not internalize any detectible quantities,appears to exhibit a lag phase,3.35 ± 0.2 ns and 3.31 ± 0.2 ns
"^HF488Aβ(1–42): Synthetic 42-residue amyloid β peptide labeled at the N terminus with Hilyte Fluor 488, purchased from Anaspec",observed readily,colocalize with LysoTracker red,–,did not internalize any detectible quantities,shows no such effect,–
